According to patent US11925690B2, “Bifunctional molecules for targeting Rpn11” (AMPHISTA THERAPEUTICS LTD, priority 2018, dated 2024):

What was measured:
Type in all cases: cell-based
Brd3 [1] = molecular target: T1, Brd3 (Homo sapiens, UniProt Q15059); assay: Time-dependent BET degradation, immunoblot; conditions: HEK293, Brd3, 1 μM; for Dmax at 1 µM: 0-24 hrs; for Abs. T1/2: time to deplete 50% of the protein relative to DMSO; for T1/2: time to reach 50% of the Dmax
Procedure: (§1) Immunoblotting. Proteins were separated by SDS-PAGE on NuPage 4-12% Bis-Tris gels, followed by transfer to Amersham Protran 0.45 NC nitrocellulose membrane (GE Healthcare) using wet transfer. Membranes were blocked using 5% w/v milk in Tris-buffered saline (TBS) with 0.1% Tween-20. Blots were probed (overnight at 4 °C) using anti-Brd2 (Abcam ab139690, 1:2,000 dilution), anti-Brd3 (Abcam ab50818, 1:500 dilution), and anti-Brd4 (Abcam ab128874, 1:1,000 dilution) primary antibodies, as appropriate. The next day, blots were washed with TBST and incubated (1 h at Room temperature) with anti-Tubulin hFAB-rhodamine (BioRad, 12004166) primary antibody, and either anti-rabbit IRDye 800CW (Licor 1:1,000 dilution) or anti-mouse IRDye 800CW (Licor 1:1,000 dilution) secondary antibody. Blots were developed using a Bio-Rad ChemiDoc MP Imaging System, and band quantification was performed using Image Studio software (LiCor). Band intensities were normalized to the tubulin loading control and reported as % of the average 0.1% DMSO vehicle intensity. Degradation data was plotted and analysed using Prism (Graphpad, version 8).
(§2) HEK293 (0.5×10^6) cells were seeded in standard 6-well plates (2 mL medium) overnight before treatment with compounds at 1 μM concentration, with a final DMSO concentration of 0.1% v/v. After incubation for the desired time (0-24 hrs), cells were washed with DPBS (Gibco) and lysed using 85 μL RIPA buffer (Sigma-Aldrich) supplemented with complete Mini EDTA-free protease inhibitor cocktail (Roche) and benzonase. Lysates were clarified by centrifugation (20000 g, 10 min, 4° C.) and the total protein content of the supernatant was quantified using a Bradford colorimetric assay. Samples were prepared using equal amounts of total protein and LDS sample buffer (Invitrogen). Band intensities were normalized to the tubulin loading control and reported as % of the average 0.1% DMSO vehicle intensity. Degradation data was plotted and analysed using Prism (Graphpad, version 8).
(§3) MZ1 and 11JQ17 were used at 1 μM (4 h) for positive and negative controls, respectively. […]

Brd2 = Brd2 (Homo sapiens, UniProt P25440); assay: Time-dependent BET degradation, immunoblot; conditions: HEK293, Brd2, 1 μM; for Dmax at 1 µM: 0-24 hrs; for Abs. T1/2: time to deplete 50% of the protein relative to DMSO; for T1/2: time to reach 50% of the Dmax
Procedure: as §1, §2, §3

Brd3 [2] = molecular target: T1, Brd3; assay: Concentration-dependent BET degradation, immunoblot; set-up: endogenous in cells; host or cells: HEK293 (CRL-1573), HeLa (CCL-2); conditions: 1 nM-10 μM
Procedure: as §1
as §2, with “HeLa (5×10^5) and HEK293” for “HEK293”, “(1×10^6)” for “(0.5×10^6)”, “the desired concentration (1 nM-10 μM),” for “1 μM concentration,”, “4 h treatment time,” for “incubation for the desired time (0-24 hrs),”, “cOmplete” for “complete”
(§4) MZ1 and 11JQ17 were used at 1 μM for positive and negative controls, respectively. […] For the table, Dmax: +(Dmax≤25%); ++(26%≤Dmax≤50%); +++(51%≤Dmax≤70%); ++++(71%≤DC50: A (DC50≤50 nM); B (51 nM≤DC50≤500 nM); C (501 nM≤DC50).

Brd4 (S) [3] = molecular target: T2, Brd4 (S) (Homo sapiens, UniProt O60885); assay: as above; conditions: 4 h, 1 nM-10 μM
T2 construct: endogenous in cells; host or cells: HEK293 (CRL-1573), HeLa (CCL-2)
Procedure: as §1
as §2, with “HeLa (5×10^5) and HEK293” for “HEK293”, “(1×10^6)” for “(0.5×10^6)”, “the desired concentration (1 nM-10 μM),” for “1 μM concentration,”, “4 h treatment time,” for “incubation for the desired time (0-24 hrs),”, “cOmplete” for “complete”
as §4

Brd4 (L) [4] = molecular target: T3, Brd4 (L) (Homo sapiens, UniProt O60885); assay: as above; conditions: 4 h, 1 nM-10 μM
T3 construct: endogenous in cells; host or cells: HEK293 (CRL-1573), HeLa (CCL-2)
Procedure: as §1
as §2, with “HeLa (5×10^5) and HEK293” for “HEK293”, “(1×10^6)” for “(0.5×10^6)”, “the desired concentration (1 nM-10 μM),” for “1 μM concentration,”, “4 h treatment time,” for “incubation for the desired time (0-24 hrs),”, “cOmplete” for “complete”
as §4

Brd2, Brd3 and Brd4 = assay: Immunoblot analysis of BET protein levels in HEK293 cells; conditions: for Brd2, Brd3 and Brd4 protein levels (FIG. 5): HEK293, 1 μM, various time points; for Brd2, Brd3 and Brd4 protein levels (FIG. 4): increasing concentrations
Procedure: Cell culture. HeLa (CCL-2) and HEK293 (CRL-1573) cells were purchased from ATCC and cultured in DMEM medium (Gibco) supplemented with 10% FBS, 100 μg/mL penicillin/streptomycin and L-glutamine. Cells were grown at 37° C. and 5% CO2 and were kept no longer than 30 passages. All cell lines were routinely tested for mycoplasma contamination using MycoAlert kit from Lonza.
HeLa (5×10^5) and HEK293 (1×10^6) cells were seeded in standard 6-well plates (2 mL medium) overnight before treatment with 1 μM compound with a final DMSO concentration of […]. After 4 h incubation time, cells were washed with DPBS (Gibco) and lysed using 85 μL RIPA buffer (Sigma-Aldrich) supplemented with cOmplete Mini EDTA-free protease inhibitor cocktail (Roche) and benzonase. Lysates were clarified by centrifugation (20000 g, 10 min, 4° C.) and the total protein content of the supernatant was quantified using a Bradford colorimetric assay. Samples were prepared using equal amounts of total protein and LDS sample buffer (Invitrogen).
as §1
as §2, with “HeLa (5×10^5) and HEK293” for “HEK293”, “(1×10^6)” for “(0.5×10^6)”, “the desired concentration (1 nM-10 μM),” for “1 μM concentration,”, “4 h treatment time,” for “incubation for the desired time (0-24 hrs),”, “cOmplete” for “complete”
HEK293 (0.5×10^6) cells were seeded in standard 6-well plates (2 mL medium) overnight before treatment with compounds at 1 μM concentration, with a final DMSO concentration of 0.1% v/v. […] Lysates were clarified by centrifugation (20000 g, 10 min, 4° C.) and the total protein content of the supernatant was quantified using a Bradford colorimetric assay. […] Degradation data was plotted and analysed using Prism (Graphpad, version 8).

Brd4 (S) [5] = molecular target: T2, Brd4 (S); assay: Time-dependent BET degradation, immunoblot; set-up: Dmax: dose or concentration left out as unconfirmed; conditions: HEK293, Brd4 (S); for Dmax: 0-24 hrs; for Abs. T1/2 / T1/2: 1 μM; for Abs. T1/2: time to deplete 50% of the protein relative to DMSO; for T1/2: time to reach 50% of the Dmax
Procedure: as §1, §2, §3

Brd4 (L) [6] = molecular target: T3, Brd4 (L); assay: Time-dependent BET degradation, immunoblot; set-up: Dmax: dose or concentration left out as unconfirmed; conditions: HEK293, Brd4 (L); for Dmax: 0-24 hrs; for Abs. T1/2 / T1/2: 1 μM; for Abs. T1/2: time to deplete 50% of the protein relative to DMSO; for T1/2: time to reach 50% of the Dmax
Procedure: as §1, §2, §3

Brd2, sequence (P25440 whole entry): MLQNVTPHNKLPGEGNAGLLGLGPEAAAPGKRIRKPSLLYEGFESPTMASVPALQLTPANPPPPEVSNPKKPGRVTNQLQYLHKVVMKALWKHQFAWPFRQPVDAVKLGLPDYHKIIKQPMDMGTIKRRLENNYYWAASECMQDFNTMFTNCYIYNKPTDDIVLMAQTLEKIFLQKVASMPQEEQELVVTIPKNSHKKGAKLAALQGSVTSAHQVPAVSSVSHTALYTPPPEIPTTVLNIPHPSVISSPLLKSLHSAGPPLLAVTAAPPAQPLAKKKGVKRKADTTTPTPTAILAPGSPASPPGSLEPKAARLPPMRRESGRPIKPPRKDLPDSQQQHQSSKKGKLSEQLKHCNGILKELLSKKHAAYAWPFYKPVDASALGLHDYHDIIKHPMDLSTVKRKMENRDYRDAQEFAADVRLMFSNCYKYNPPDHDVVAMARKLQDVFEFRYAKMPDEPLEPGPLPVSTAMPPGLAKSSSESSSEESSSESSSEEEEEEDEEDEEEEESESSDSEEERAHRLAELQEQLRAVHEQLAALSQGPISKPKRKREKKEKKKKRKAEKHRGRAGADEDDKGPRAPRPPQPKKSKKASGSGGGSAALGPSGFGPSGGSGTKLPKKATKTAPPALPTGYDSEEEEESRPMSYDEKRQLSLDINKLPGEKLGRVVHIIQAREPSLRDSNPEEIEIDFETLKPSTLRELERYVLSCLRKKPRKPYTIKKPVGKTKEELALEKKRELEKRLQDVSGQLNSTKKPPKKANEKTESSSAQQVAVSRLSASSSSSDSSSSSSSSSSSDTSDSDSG
T1 sequence (Q15059 whole entry): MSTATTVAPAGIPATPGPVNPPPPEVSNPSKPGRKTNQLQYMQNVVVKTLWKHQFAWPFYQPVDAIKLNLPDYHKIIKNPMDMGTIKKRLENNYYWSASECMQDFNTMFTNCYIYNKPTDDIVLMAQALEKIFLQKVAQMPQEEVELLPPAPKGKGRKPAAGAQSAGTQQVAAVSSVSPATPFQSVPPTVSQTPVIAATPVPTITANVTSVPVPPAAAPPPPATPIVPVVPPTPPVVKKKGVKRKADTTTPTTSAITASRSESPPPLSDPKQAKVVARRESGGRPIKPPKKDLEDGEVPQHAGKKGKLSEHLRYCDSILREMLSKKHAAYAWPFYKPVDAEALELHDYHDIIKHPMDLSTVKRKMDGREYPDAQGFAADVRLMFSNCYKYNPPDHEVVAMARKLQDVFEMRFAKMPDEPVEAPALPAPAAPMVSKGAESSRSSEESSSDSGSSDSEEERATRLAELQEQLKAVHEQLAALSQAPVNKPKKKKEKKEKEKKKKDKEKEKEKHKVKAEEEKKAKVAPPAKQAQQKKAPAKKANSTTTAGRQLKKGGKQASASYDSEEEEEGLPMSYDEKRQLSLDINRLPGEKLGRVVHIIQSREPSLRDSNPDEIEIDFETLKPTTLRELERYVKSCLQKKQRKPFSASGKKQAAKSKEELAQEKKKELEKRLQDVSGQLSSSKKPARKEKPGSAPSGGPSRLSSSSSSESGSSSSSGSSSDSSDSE

SMILES	Dmax at 1 µM (Brd3 [1]) [%]	Abs. T1/2 (Brd3 [1]) [h]	T1/2 (Brd3 [1]) [h]	Dmax at 1 µM (Brd2) [%]	Abs. T1/2 (Brd2) [h]	T1/2 (Brd2) [h]	DC50 (Brd3 [2]; HEK293, Brd3, 4 h) [nM]	Dmax (Brd3 [2]; HEK293, Brd3, 4 h) [%]	DC50 (Brd3 [2]; HeLa, Brd3, 4 h) [nM]	Dmax (Brd3 [2]; HeLa, Brd3, 4 h) [%]	DC50 (Brd4 (S) [3]; HEK293, Brd4 (S)) [nM]	Dmax (Brd4 (S) [3]; HEK293, Brd4 (S)) [%]	DC50 (Brd4 (S) [3]; HeLa) [nM]	Dmax (Brd4 (S) [3]; HeLa) [%]	DC50 (Brd4 (L) [4]; HEK293, Brd4 (L)) [nM]	Dmax (Brd4 (L) [4]; HEK293, Brd4 (L)) [%]	DC50 (Brd4 (L) [4]; HeLa) [nM]	Dmax (Brd4 (L) [4]; HeLa) [%]	Dmax (Brd4 (S) [5]) [%]	Abs. T1/2 (Brd4 (S) [5]) [h]	further results
Cc1sc2c(c1C)C(c1ccc(Cl)cc1)=N[C@@H](CC(=O)NCCCCNC(=O)c1cc(S)c3ncc(C(=O)NCCc4nccs4)cc3c1)c1nnc(C)n1-2 [Example 11JQ7]	95	3.4	2.9	80	3.2	1.8	≥ 501	≥ 71	51 to 500	≥ 71	51 to 500	≥ 71	≤ 50	≥ 71	51 to 500	≥ 71	≤ 50	≥ 71	99	1.9	Brd2, Brd3 and Brd4 protein levels (FIG. 1) (Brd2, Brd3 and Brd4; HEK293, 1 μM compound, 4 h, relative to 0.1% DMSO): approaching the potency of PROTAC MZ1; T1/2 (Brd4 (S) [5]): 1.9 h; Dmax (Brd4 (L) [6]): 98%; Abs. T1/2 (Brd4 (L) [6]): 1.2 h; T1/2 (Brd4 (L) [6]): 1.2 h
Cc1sc2c(c1C)C(c1ccc(Cl)cc1)=N[C@@H](CC(=O)NCCOCCNC(=O)c1cc(SC(=O)c3ccccc3)c3ncc(C(=O)NCCc4nccs4)cc3c1)c1nnc(C)n1-2 [Example 11JQ15]	70	2.6	1.5	50	5.7	1.1	51 to 500	26 to 50	51 to 500	26 to 50	51 to 500	51 to 70	51 to 500	51 to 70	51 to 500	51 to 70	51 to 500	51 to 70	90	1.2	Brd2, Brd3 and Brd4 protein levels (FIG. 5) (Brd2, Brd3 and Brd4): depletion of Brd2, Brd3 and Brd4 protein levels; Brd2, Brd3 and Brd4 protein levels (FIG. 4) (Brd2, Brd3 and Brd4; 4 h): depletion of Brd2, Brd3 and Brd4 protein levels; T1/2 (Brd4 (S) [5]): 0.9 h; Dmax (Brd4 (L) [6]): 90%; Abs. T1/2 (Brd4 (L) [6]): 1.1 h; T1/2 (Brd4 (L) [6]): 0.8 h
Cc1sc2c(c1C)C(c1ccc(Cl)cc1)=N[C@@H](CC(=O)NCCCCNC(=O)c1cc(SC(=O)c3ccccc3)c3ncc(C(=O)NCCc4nccs4)cc3c1)c1nnc(C)n1-2 [Example 11JQ16]	95	1.9	1.6	75	2.7	1.7	≤ 50	≥ 71	≥ 501	51 to 70	≤ 50	≥ 71	51 to 500	≥ 71	≤ 50	≥ 71	51 to 500	≥ 71	95	0.6	Brd2, Brd3 and Brd4 protein levels (FIG. 5) (Brd2, Brd3 and Brd4): depletion of Brd2, Brd3 and Brd4 protein levels; Brd2, Brd3 and Brd4 protein levels (FIG. 4) (Brd2, Brd3 and Brd4; 4 h): depletion of Brd2, Brd3 and Brd4 protein levels; T1/2 (Brd4 (S) [5]): 0.6 h; Dmax (Brd4 (L) [6]): 98%; Abs. T1/2 (Brd4 (L) [6]): 1.0 h; T1/2 (Brd4 (L) [6]): 1.0 h
